{
  "source": "patent US20070060605A1",
  "about": "“Compositions and methods for inhibiting platelet activation and thrombosis” (priority 2001, published 2007)",
  "key": {"[1]": {"molecular_target": "recombinant human PDE2 (Homo sapiens, UniProt O00408)", "sequence (O00408 whole entry)": "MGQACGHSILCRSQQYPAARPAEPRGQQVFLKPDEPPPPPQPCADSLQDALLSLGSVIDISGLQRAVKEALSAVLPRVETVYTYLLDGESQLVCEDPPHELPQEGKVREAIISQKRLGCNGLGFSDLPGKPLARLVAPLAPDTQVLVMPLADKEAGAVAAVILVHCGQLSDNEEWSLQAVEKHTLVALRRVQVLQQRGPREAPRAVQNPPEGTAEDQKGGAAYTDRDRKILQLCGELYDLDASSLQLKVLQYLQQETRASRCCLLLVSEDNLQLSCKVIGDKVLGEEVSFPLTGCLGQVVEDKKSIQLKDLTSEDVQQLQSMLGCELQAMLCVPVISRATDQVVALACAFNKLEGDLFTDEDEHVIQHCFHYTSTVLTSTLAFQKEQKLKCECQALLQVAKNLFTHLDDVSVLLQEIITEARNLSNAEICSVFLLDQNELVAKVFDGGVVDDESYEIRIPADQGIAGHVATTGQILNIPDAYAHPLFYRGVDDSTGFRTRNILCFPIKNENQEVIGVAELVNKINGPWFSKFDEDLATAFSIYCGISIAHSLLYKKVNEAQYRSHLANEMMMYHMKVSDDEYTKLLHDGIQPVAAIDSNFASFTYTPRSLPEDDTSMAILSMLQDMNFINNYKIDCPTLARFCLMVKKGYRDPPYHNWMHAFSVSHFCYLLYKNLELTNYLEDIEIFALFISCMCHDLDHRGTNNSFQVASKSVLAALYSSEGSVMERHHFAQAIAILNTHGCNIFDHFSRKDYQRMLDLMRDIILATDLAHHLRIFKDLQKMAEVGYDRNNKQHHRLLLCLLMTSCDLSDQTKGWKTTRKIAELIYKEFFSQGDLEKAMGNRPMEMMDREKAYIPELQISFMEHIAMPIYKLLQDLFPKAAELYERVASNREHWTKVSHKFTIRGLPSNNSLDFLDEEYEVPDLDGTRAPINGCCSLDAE", "assay": "Phosphodiesterase inhibition, PDE2", "type": "biochemical", "details": "up to 1 μM", "experimental": "(§1) Intracellular cAMP generated by adenylyl cyclase in platelets is actively hydrolyzed by phosphodiesterase. […] Human platelets express PDE2, PDE3, and PDE5. Therefore, the compound was tested for its inhibitory effect on these phosphodiesterases using methods as described in Example 3."}, "[2]": {"molecular_target": "T1, human platelet PDE5 (Homo sapiens, UniProt O76074)", "T1 construct": "human platelet PDE5; from tissue; host or cells: human platelets", "assay": "Phosphodiesterase inhibition, PDE5", "type": "biochemical", "details": "up to 1 μM", "experimental": "as §1"}, "[3]": {"test_system": "PGE1-induced cAMP levels in platelets", "assay": "Augmentation of PGE1-induced cAMP levels in platelets", "type": "cell-based, human", "details": "no single concentration", "experimental": "One frequent target of anti-platelet agents is phosphodiesterase III (PDE III). […] The assay is performed as described by Liao et al., 1998, Eur J Pharmacol 349,107-114, incorporated herein by reference. Briefly, aliquots of PRP are exposed to increasing concentrations of the agent for 20 minutes. The PRP is then challenged with 1 μM PGE1 for 2 min The reaction is stopped by adding 10 mM EDTA, followed immediately by boiling for 2 min. The mixture is cooled to 4° C. and the precipitated protein is pelleted. cAMP content in the supernatant is quantitated using an enzyme immunoassay kit (Pharmacia-Amersham, N.J.) according to the instructions of the manufacturer.\nIn order to assess whether the compounds useful according to the invention might act through inhibition phosphodiesterase III, each was tested for its effect on PGE1-induced cAMP increase. Determination of platelet cAMP levels was performed as described by Liao et al., 1998, supra. Aliquots of PRP were exposed to increasing concentrations of the indicated compounds for 20 min. PRP was then challenged with 1 μM PGE1 for 2 min. The reaction was stopped with the addition of 10 mM EDTA followed immediately by boiling for 2 min. The mixture was then cooled to 4° C. and the precipitated protein was pelleted. Cyclic AMP content in the supernatant was then quantified using an enzyme immunoassay kit (Pharmacia-Amersham, N.J.) according to the instructions of the manufacturer."}, "[4]": {"details": "listed as Pyridazinone compound"}, "[5]": {"details": "listed as pyridazinone compound"}},
  "data": [
    {"smiles": "CC1CC(=O)NN=C1c1ccc(N)c([N+](=O)[O-])c1", "note": "(stereo not drawn) [6-(4-Amino-3-nitro-phenyl)-5-methyl-4,5-dihydro-2H-pyridazin-3-one]", "values": [
      {"measurement": "Inhibition of recombinant human PDE2", "setting": "[1]; [4]", "result": "No significant inhibition"},
      {"measurement": "Inhibition of recombinant human PDE2", "setting": "[1]; [5]", "result": "little inhibition"},
      {"measurement": "Inhibition of human platelet PDE5", "setting": "[2]; [4]", "result": "No significant inhibition"},
      {"measurement": "Inhibition of human platelet PDE5", "setting": "[2]; [5]", "result": "little inhibition"},
      {"measurement": "Effect on PGE1-stimulated cAMP levels in platelets", "setting": "[3]", "result": "augments"},
      {"measurement": "Effect on PGE1-stimulated cAMP levels in platelets", "setting": "[3]; [4]", "result": "augment"}
    ]}
  ]
}
